In patent publication US6762174B1 (priority 1998, dated 2004):
Read-outs that look alike come from different tables or passages of the source.

Legend:
MOPC-315 myeloma [1] = experiment: MOPC-315 Myeloma study #1: β-alethine ip day 2 (1 × 10^6 tumor cells)
[2] = tested on: MT-1 breast cancer xenograft
B16 melanoma = type: in vivo, female BDF1 mice
[3] = tested on: MT-1 breast cancer xenograft; experiment: MT-1 breast cancer xenograft: BT by intratumor injection; type: in vivo, male nude mice; set-up: Median RTV: unit not given here; conditions: for Median RTV: BT 30 ng intratumor
Procedure: In a parallel experiment, a low dose of 30 ng of BT was injected directly into the tumor on days 3, 17 and 31. The T/C for RTV measured on day 35 was 50%.

[4] = tested on: MT-1 breast cancer xenograft; experiment: MT-1 breast cancer xenograft, second experiment: BT on day 3 only; type: in vivo, male nude mice
Procedure: In the second experiment with MT-1 breast cancer, BT was administered on day three only, at doses of […] to 3 micrograms/kg. The T/C ratio of treated vs. control median RTV was measured on day 28. […] The other doses of BT (30 ng, 3 ng, 0.3 ng, and 0.03 ng) alone were not effective in this experiment. These observations of RTV were made only through day 28.

MOPC-315 myeloma [5] = experiment: MOPC-315 Myeloma study #3: β-alethine ip day 0 (3 × 10^5 tumor cells); conditions: for Animals Surviving: BT 100 ng/kg

NCCC(=O)NCCSSCCNC(=O)CCN [BT, β-alethine]
Animals Surviving (MOPC-315 myeloma [1]; BT 3 ng/kg, day 10): 10
Animals Surviving (MOPC-315 myeloma [1]; BT 3 ng/kg, day 11): 10
Animals Surviving (MOPC-315 myeloma [1]; BT 3 ng/kg, day 12): 10
Animals Surviving (MOPC-315 myeloma [1]; BT 3 ng/kg, day 13): 9
Animals Surviving (MOPC-315 myeloma [1]; BT 3 ng/kg, day 14): 8
Animals Surviving (MOPC-315 myeloma [1]; BT 3 ng/kg, day 15): 7
Animals Surviving (MOPC-315 myeloma [1]; BT 3 ng/kg, day 16): 6
Animals Surviving (MOPC-315 myeloma [1]; BT 3 ng/kg, day 17): 4
Animals Surviving (MOPC-315 myeloma [1]; BT 3 ng/kg, day 18): 3
Animals Surviving (MOPC-315 myeloma [1]; BT 3 ng/kg, day 19): 3
Animals Surviving (MOPC-315 myeloma [1]; BT 3 ng/kg, day 20): 2
Animals Surviving (MOPC-315 myeloma [1]; BT 3 ng/kg, day 21): 0
Animals Surviving (MOPC-315 myeloma [1]; BT 100 μg/kg, day 10): 10
Animals Surviving (MOPC-315 myeloma [1]; BT 100 μg/kg, day 11): 10
Animals Surviving (MOPC-315 myeloma [1]; BT 100 μg/kg, day 12): 10
Animals Surviving (MOPC-315 myeloma [1]; BT 100 μg/kg, day 13): 10
Animals Surviving (MOPC-315 myeloma [1]; BT 100 μg/kg, day 14): 7
Animals Surviving (MOPC-315 myeloma [1]; BT 100 μg/kg, day 15): 6
Animals Surviving (MOPC-315 myeloma [1]; BT 100 μg/kg, day 16): 6
Animals Surviving (MOPC-315 myeloma [1]; BT 100 μg/kg, day 17): 5
Animals Surviving (MOPC-315 myeloma [1]; BT 100 μg/kg, day 18): 3
Animals Surviving (MOPC-315 myeloma [1]; BT 100 μg/kg, day 19): 3
Animals Surviving (MOPC-315 myeloma [1]; BT 100 μg/kg, day 20): 1
Animals Surviving (MOPC-315 myeloma [1]; BT 100 μg/kg, day 21): 0
Animals Surviving (MOPC-315 myeloma [1]; BT 3 mg/kg, day 10): 10
Animals Surviving (MOPC-315 myeloma [1]; BT 3 mg/kg, day 11): 10
Animals Surviving (MOPC-315 myeloma [1]; BT 3 mg/kg, day 12): 10
Animals Surviving (MOPC-315 myeloma [1]; BT 3 mg/kg, day 13): 10
Animals Surviving (MOPC-315 myeloma [1]; BT 3 mg/kg, day 14): 7
Animals Surviving (MOPC-315 myeloma [1]; BT 3 mg/kg, day 15): 4
Animals Surviving (MOPC-315 myeloma [1]; BT 3 mg/kg, day 16): 4
Animals Surviving (MOPC-315 myeloma [1]; BT 3 mg/kg, day 17): 3
Animals Surviving (MOPC-315 myeloma [1]; BT 3 mg/kg, day 18): 2
Animals Surviving (MOPC-315 myeloma [1]; BT 3 mg/kg, day 19): 2
Animals Surviving (MOPC-315 myeloma [1]; BT 3 mg/kg, day 20): 1
Animals Surviving (MOPC-315 myeloma [1]; BT 3 mg/kg, day 21): 1
Animals Surviving (MOPC-315 myeloma [1]; BT 3 mg/kg, day 22): 1
Animals Surviving (MOPC-315 myeloma [1]; BT 3 mg/kg, day 23): 1
Animals Surviving (MOPC-315 myeloma [1]; BT 3 mg/kg, day 24): 0
Animals Surviving (MOPC-315 myeloma [1]; BT 30 fg/kg, day 10): 10
Animals Surviving (MOPC-315 myeloma [1]; BT 30 fg/kg, day 11): 10
Animals Surviving (MOPC-315 myeloma [1]; BT 30 fg/kg, day 12): 10
Animals Surviving (MOPC-315 myeloma [1]; BT 30 fg/kg, day 13): 8
Animals Surviving (MOPC-315 myeloma [1]; BT 30 fg/kg, day 14): 5
Animals Surviving (MOPC-315 myeloma [1]; BT 30 fg/kg, day 15): 3
Animals Surviving (MOPC-315 myeloma [1]; BT 30 fg/kg, day 16): 3
Animals Surviving (MOPC-315 myeloma [1]; BT 30 fg/kg, day 17): 3
Animals Surviving (MOPC-315 myeloma [1]; BT 30 fg/kg, day 18): 2
Animals Surviving (MOPC-315 myeloma [1]; BT 30 fg/kg, day 19): 2
Animals Surviving (MOPC-315 myeloma [1]; BT 30 fg/kg, day 20): 0
Animals Surviving (MOPC-315 myeloma [1]; BT 30 fg/kg, day 21): 0
T/C RTV d 49 ([2]; BT 30 mg/kg): 72%
T/C RTV d 59 ([2]; BT 30 mg/kg): 165%
effectiveness ([2]; BT 30 mg/kg alone): not effective
WBC d 46 ([2]; mouse, in vivo): 14.4 10^6/mL
Primary Tumor Size (Median RTV) (B16 melanoma; BT 30 pg/kg alone, day 0): 1
Primary Tumor Size (Median RTV) (B16 melanoma; BT 30 pg/kg alone, day 4): 1.0
Primary Tumor Size (Median RTV) (B16 melanoma; BT 30 pg/kg alone, day 7): 1.8
Primary Tumor Size (Median RTV) (B16 melanoma; BT 30 pg/kg alone, day 10): 6.0
Primary Tumor Size (Median RTV) (B16 melanoma; BT 30 pg/kg alone, day 14): 17.3
Primary Tumor Size (Median RTV) (B16 melanoma; BT 30 pg/kg alone, day 17): 62.0
Primary Tumor Size (Median RTV) (B16 melanoma; BT 30 ng/kg alone, day 0): 1
Primary Tumor Size (Median RTV) (B16 melanoma; BT 30 ng/kg alone, day 4): 1.0
Primary Tumor Size (Median RTV) (B16 melanoma; BT 30 ng/kg alone, day 7): 3.1
Primary Tumor Size (Median RTV) (B16 melanoma; BT 30 ng/kg alone, day 10): 8.1
Primary Tumor Size (Median RTV) (B16 melanoma; BT 30 ng/kg alone, day 14): 15.7
Primary Tumor Size (Median RTV) (B16 melanoma; BT 30 ng/kg alone, day 17): 32.4
Primary Tumor Size (Median RTV) (B16 melanoma; BT 30 ug/kg alone, day 0): 1
Primary Tumor Size (Median RTV) (B16 melanoma; BT 30 ug/kg alone, day 4): 1.0
Primary Tumor Size (Median RTV) (B16 melanoma; BT 30 ug/kg alone, day 7): 1.3
Primary Tumor Size (Median RTV) (B16 melanoma; BT 30 ug/kg alone, day 10): 5.5
Primary Tumor Size (Median RTV) (B16 melanoma; BT 30 ug/kg alone, day 14): 16.6
Primary Tumor Size (Median RTV) (B16 melanoma; BT 30 ug/kg alone, day 17): 30.4
Primary Tumor Size (Median RTV) (B16 melanoma; BT 30 mg/kg alone, day 0): 1
Primary Tumor Size (Median RTV) (B16 melanoma; BT 30 mg/kg alone, day 4): 1.7
Primary Tumor Size (Median RTV) (B16 melanoma; BT 30 mg/kg alone, day 7): 3.3
Primary Tumor Size (Median RTV) (B16 melanoma; BT 30 mg/kg alone, day 10): 7.5
Primary Tumor Size (Median RTV) (B16 melanoma; BT 30 mg/kg alone, day 14): 23.2
Primary Tumor Size (Median RTV) (B16 melanoma; BT 30 mg/kg alone, day 17): 34.8
Primary Tumor Size (Median RTV) (B16 melanoma; BT 30 fg/kg alone, day 0): 1
Primary Tumor Size (Median RTV) (B16 melanoma; BT 30 fg/kg alone, day 4): 1.7
Primary Tumor Size (Median RTV) (B16 melanoma; BT 30 fg/kg alone, day 7): 2.4
Primary Tumor Size (Median RTV) (B16 melanoma; BT 30 fg/kg alone, day 10): 7.0
Primary Tumor Size (Median RTV) (B16 melanoma; BT 30 fg/kg alone, day 14): 16.1
Primary Tumor Size (Median RTV) (B16 melanoma; BT 30 fg/kg alone, day 17): 41.6
T/C for RTV ([3]; 30 ng BT into the tumor days 3, 17, 31, day 35): 50%
Median RTV ([3]; day 8): 1.27
Median RTV ([3]; day 11): 1.40
Median RTV ([3]; day 14): 1.77
Median RTV ([3]; day 17): 2.61
Median RTV ([3]; day 21): 3.74
Median RTV ([3]; day 24): 4.34
Median RTV ([3]; day 28): 4.93
Median RTV ([3]; day 31): 6.37
Median RTV ([3]; day 35): 8.01
effectiveness ([4]; BT 30 ng, 3 ng, 0.3 ng, 0.03 ng alone): not effective
T/C ratio of median RTV ([4]; BT 300 ng/kg day 3, day 28): 42%
Median RTV ([4]; BT 300 ng/kg on Day 3, day 8): 1.105
Median RTV ([4]; BT 300 ng/kg on Day 3, day 14): 1.243
Median RTV ([4]; BT 300 ng/kg on Day 3, day 21): 2.532
Median RTV ([4]; BT 300 ng/kg on Day 3, day 28): 3.317
T/C ratio of median RTV ([4]; BT 3 ug/kg day 3, day 28): 32%
Median RTV ([4]; BT 3 ug/kg on Day 3, day 8): 1.012
Median RTV ([4]; BT 3 ug/kg on Day 3, day 14): 0.955
Median RTV ([4]; BT 3 ug/kg on Day 3, day 21): 1.756
Median RTV ([4]; BT 3 ug/kg on Day 3, day 28): 2.526
Animals Surviving (MOPC-315 myeloma [5]; day 10): 10
Animals Surviving (MOPC-315 myeloma [5]; day 11): 10
Animals Surviving (MOPC-315 myeloma [5]; day 12): 10
Animals Surviving (MOPC-315 myeloma [5]; day 13): 10
Animals Surviving (MOPC-315 myeloma [5]; day 14): 7
Animals Surviving (MOPC-315 myeloma [5]; day 17): 0
survival prolonged to (MOPC-315 myeloma [5]; BT 3 mg/kg, control 16 days): 18 days
